According to patent publication US20070148220A1, “Liposomes and liposomal compositions for vaccination and drug delivery” (priority 2003, published 2007):

What was measured:
[1] = test system: TRP-2-specific T cells (splenocytes); test: Avidity of TRP-2-specific T cells (splenocyte proliferation, ATPlite); format: in vivo, BL6 mice; details: after two immunizations
Method: FIG. 22: Vaccination with liposomal-encapsulated TRP-2 plus CpG-PTO. The vaccination with liposomal-encapsulated TRP-2 plus CpG-PTO generates high avidity T cells. BL6 mice were vaccinated with 10 μg liposomal or 100 μg free TRP-2 plus 5 nmol free CpG ODN at weekly intervals up to three times. Lymphocytes were isolated from spleen (A) and lymph node (LN) (B) one week after last immunization and an IFNγ capture assay was performed as described. C, Avidity of T cells after vaccination with liposomal and free TRP-2 plus CpG ODN. One week after the last immunization splenocytes were nylon-wool enriched and cultured for 5 days in vitro in the presence of high dose (10^−6 mol/l) or low dose TRP-2 (10^−9 mol/l) or control peptide […] (10^−6 mol/l) with low dose IL2 (30 U/ml). Proliferation was estimated by a luminescence assay-based detection system measuring ATP content. Proliferation of splenocytes in the presence of anti-TCR plus anti-CD28 mAb was set to 100%. Representative data from one of two similar experiments are shown.
Finally, the avidity of TRP-2-specific CTLs in animals immunized with liposomal or free TRP-2, respectively (FIG. 21) was compared. […] In parallel to the IFNγ secretion assay nylon-wool column enriched splenocytes were cultured with high (10^−6 mol/l) and low dose TRP-2 (10^−9 mol/l), for 5 days and cell proliferation was determined using the ATPlite™-M system. […]

[2] = test system: B16.F1 and TRP-2 pulsed EL4; test: CTL cytotoxicity against TRP-2 presenting cells after immunization; format: in vivo, mouse; details: free versus liposomal
Method: In another set of experiments antigen-specificity of cytotoxic T lymphocytes after liposomal vaccination (FIG. 20) was analyzed. Mice were immunized with AVE3-encapsulated or free TRP-2 and CpG-PTO as described above. Cells prepared from lymph nodes were then tested for cytotoxicity using as targets the mouse melanoma cell line B16.F1 know to present TRP-2 in the context of H-2K^b, TRP-2 pulsed EL4 cells, OVA peptide-pulsed EL4 cells, unpulsed EL4 cells, and YAC-1 cells to exclude a potential NK cell activity. […] As described above 10-fold higher amounts of free TRP-2 and 4-fold higher amounts of CpG-PTO were necessary to induce the same CTL response.

[3] = test system: murine B cells; test: Induction of B cell proliferation (CFSE); format: cell-based; details: ODN 5 to 200 nmol/l, free or AVE3-encapsulated
From the text: FIG. 12: Comparison of the biological activity of CpG-PTO and CpG-PDO. Cells were labeled with CFSE before being stimulated for 48 hrs with 0 to 0.2 μmol/l end concentration of ODNs in saline or liposomal. (black diamonds) CpG-PTO in saline; (grey diamonds) CpG-PDO in saline; (black squares) liposomal CpG-PTO; (grey squares) liposomal CpG-PDO. Dead cells were excluded by propidium iodide staining.
CpG oligonucleotides have been described to induce B cell proliferation. The effects of free or encapsulated CpG phosphorothioate oligonucleotides (CpG-PTO) (see example 6) on proliferation of murine B cells (FIG. 11A) were compared. […] Induction of B cell proliferation was dependent on the concentration of applied ODN with strong B cell proliferation observed between 50 to 200 nmol/l encapsulated ODN. Similar values were obtained for CpG-ODN encapsulated at different concentrations (between 4.6 μg/μmol lipid to 93.5 μg/μmol lipid). No induction of B cell proliferation was observed using free or encapsulated non-CpG-ODN (FIG. 11B).
CpG phosphorothioate (CpG-PTO) or CpG phosphodiester (CpG-PDO) oligonucleotides (see example 6) were analyzed for the induction of B cell proliferation in free or AVE3-encapsulated form using ODN concentrations between 5 to 200 nmol/l. […]

| Substance | avidity of T cells, liposomal vs. free TRP-2 [1] | higher amounts necessary to induce the same CTL response [2] [fold] | induction of B cell proliferation [3] |
| --- | --- | --- | --- |
| free TRP-2: antigenic peptide TRP-2 (SVYDFFVWL), not encapsulated | more polyclonal response of splenocytes consisting of low and high avidity T cells | 10 | – |
| non-CpG-ODN: non-CpG-1982-PTO, 5′-TCCAGGACTTCTCTCAGGT-3′, free (DNA, all phosphorothioate, methylation of C not given here) | – | – | No induction |
